In US20250339443A1, “METHOD FOR TREATING OR PREVENTING CALCIUM RELEASE-ACTIVATED CALCIUM CHANNEL OR DISCOIDIN DOMAIN RECEPTOR 2 RELATED DISORDERS OR CONDITIONS” (LumiSTAR Biotechnology, Inc., priority 2023, published 2025):
Entries after “also recorded” stand apart in the source; their conditions may differ.

Columns and labels:
[1] = tested on: Jurkat T cells; experiment: Cytokine secretion in T cells (ELISA); type: cell-based, human; conditions: PHA/PMA induction, culture medium
[2] = tested on: UUO-induced renal fibrosis; experiment: Unilateral ureteral obstruction (UUO) renal fibrosis model; type: in vivo, mouse; conditions: for UUO-induced downregulation of E-cadherin (kidney, Western blot) / UUO-induced upregulation of integrin β1, DDR2, collagen 1a1, and α-SMA (kidney, Western blot) / area positively stained with fibrillar collagen (Sirius red) / histology: UUO-induced tubular dilation and interstitial expansion (H&E): 5 mg/kg/day for 7 days; for apoptotic tubular cells (TUNEL): 5 mg/kg/day for 7 days during ureter obstruction
Method: Surgical ligation was performed on the left ureter of 7-to-8-week-old male mice using a nylon surgical suture. Subsequently, the mice were treated with 5 mg/kg/day of DMSO (control), BTP2, WRG-28, or Av for 7 days. […] FIG. 5B illustrates the evaluation of fibrillar collagen expression levels via Sirius red staining. FIG. 5C presents the measurement of the Sirius red-positive area using Image J. FIG. 5D, FIG. 5E, FIG. 5F, FIG. 5G, and FIG. 5H depict the protein levels of integrin β1, DDR2, Collagen 1a1, α-SMA, and E-cadherin in kidney samples from mice treated with 5 mg/kg/day of BTP2 (FIG. 5D), WRG-28 (FIG. 5F), or Av (FIG. 5H), which were assessed by Western blot analysis. […] FIG. 5K illustrates the evaluation of apoptotic cells from 5-10 pictures in each condition.
Cell lysates were harvested in RIPA buffer (150 mM NaCl, 1 mM EGTA, 50 mM Tris pH 7.4, 10% glycerol, 1% Triton X-100, 1% sodium deoxycholate, 0.1% SDS, and protease inhibitor cocktail) and collected from culture dish with cell scrapers. For tissue sample preparation, half of the kidney tissues were cut into ˜1 mm3 and then put into 500 μl RIPA buffer in 2 ml tubes. Mechanical homogenizers by agitating beads at high speeds for 30 seconds were used for tissue protein extraction. Protein samples in supernatants were collected after centrifuging the tubes at 10000 g for 10 min at 4° C. 20-30 μg protein samples were resolved by 7.5% or 10% SDS-PAGE. The protein expression levels were assessed by specific primary antibodies, including antibodies against phosphotyrosine (clone 4G10; Millipore), DDR2 (R&D), α-SMA (Sigma), Collagen 1a1 (Boster), E-cadherin (BD Biosciences), SGLT2 (Proteintech), NHE1 (Novus) and β-actin (Clone C4, Millipore), followed by incubating with secondary antibodies conjugated with HRP and detected by ECL kit (Thermo Scientific).
Procedures involving animal subjects have been approved by the Institutional Animal Care and Use Committee (IACUC) at the National Laboratory Animal Center. 7-8 weeks old male C57BL/6 mice were obtained from the animal center. Unilateral ureteral obstruction (UUO) was performed by ligating the left ureter and mice were treated with 5 mg/kg/day DMSO, BTP2, WRG-28, or Av for 7 days after ligation. After 7 days, mice were sacrificed and the kidneys were removed and used for analysis. One-quarter of the kidney was fixed by 4% paraformaldehyde and embedded in paraffin or one-quarter of the kidney was embedded in the Tissue-Tek OCT compound. Half of the kidneys are used for protein analysis. In the reversible unilateral ureteral obstruction (RUUO) experiment, the ligated-left ureter was re-connected to the bladder after UUO surgery for 7 days. The compounds, WRG-28 and Av, were injected during ligation (7*/15d) or after ligation was released (7/15*d). To assess the kidney function, the right ureter was ligated the day before leaving mice in the metabolic cage. The urine and blood were collected for blood urea nitrogen (BUN) and creatinine (CRE) test.
Deparaffinize and rehydrate tissue slides were immersed in filtered Harris Hematoxylin for 10 seconds. After extensively washing in tap water, samples were immersed in Alcoholic-Eosin for 2 minutes. The tissue was then dehydrated and mounted by resinous medium and glass coverslips.
Deparaffinize and rehydrate tissue slides were stained with Picrosirius red for one hour, followed by an extensive wash with acidified water. After dehydration through 3 runs of change of 95% ethanol, 2 runs of change of 100% ethanol, and 3 runs of change of xylene, tissue slides were mounted by resinous mounting medium and glass coverslips. […]
The TUNEL assay kit was purchased from Abcam (ab206386). The procedure was carried out following the manufactory's instructions. […]

[3] = tested on: human cardiac fibroblast (HCF); experiment: TGF-β1-induced activation of human cardiac fibroblasts (Western blot); type: cell-based; conditions: 10 μM co-treatment, 24 hours
Method: (§1) Cells were co-treated with various compounds (10 μM) and TGF-β1 for 24 hours. Following this, cell lysates were harvested, and the protein expression was assessed by Western blot analysis. FIG. 3D depicts the examination of TGF-β1-induced fibronectin deposition and α-SMA expression in HCF treated with 10 μM of DMSO, BTP2, WRG-28, or Av through immunofluorescence staining. The images were captured using a confocal microscope, the Olympus FV-1000. FIG. 3E, FIG. 3F, and FIG. 3G illustrate the assessment of CRAC channel activity in HCF, MRC5, and rat HSC-T6. These cells were pretreated with 10 μM of BTP2, WRG-28, or Av for 45 min. The evaluation included measuring the second peak of each calcium wave and the rate of entry. […]
(§2) Cell lysates were harvested in RIPA buffer (150 mM NaCl, 1 mM EGTA, 50 mM Tris pH 7.4, 10% glycerol, 1% Triton X-100, 1% sodium deoxycholate, 0.1% SDS, and protease inhibitor cocktail) and collected from culture dish with cell scrapers. […] The protein expression levels were assessed by specific primary antibodies, including antibodies against phosphotyrosine (clone 4G10; Millipore), DDR2 (R&D), α-SMA (Sigma), Collagen 1a1 (Boster), E-cadherin (BD Biosciences), SGLT2 (Proteintech), NHE1 (Novus) and β-actin (Clone C4, Millipore), followed by incubating with secondary antibodies conjugated with HRP and detected by ECL kit (Thermo Scientific). […]

[4] = tested on: human pulmonary fibroblast (MRC5); experiment: TGF-β1-induced activation of human pulmonary fibroblasts (Western blot); type: cell-based; conditions: MRC5, 10 μM co-treatment, 24 hours
Method: as §1, §2

SMILES	secretion of IL-2 in T cells [1]	UUO-induced downregulation of E-cadherin (kidney, Western blot) [2]	UUO-induced upregulation of integrin β1, DDR2, collagen 1a1, and α-SMA (kidney, Western blot) [2]	area positively stained with fibrillar collagen (Sirius red) [2]	histology: UUO-induced tubular dilation and interstitial expansion (H&E) [2]	apoptotic tubular cells (TUNEL) [2]	upregulation of α-SMA induced by TGF-β1 [3]	upregulation of α-SMA induced by TGF-β1 [4]
Cc1nnsc1C(=O)Nc1ccc(-n2nc(C(F)(F)F)cc2C(F)(F)F)cc1 [BTP2]	significantly reduced	reversing	suppressed	significantly reduced	appeared to mitigate the effects caused by UUO	notably reduced	suppressed	suppressed
CCNS(=O)(=O)c1ccc(COc2ccc3nc4ccc(=O)cc-4oc3c2)cc1 [WRG-28]	significantly reduced	reversing	suppressed	significantly reduced	appeared to mitigate the effects caused by UUO	notably reduced; also recorded: significantly reduced	suppressed	suppressed
